Laboratory results: US6245758A, “Methods of use for peroxynitrite decomposition catalysts, pharmaceutical compositions therefor” (priority 1996, dated 2001)
Where a name gives a salt, the structure may show the parent alone.

Experiments:
[1] = system: carrageenan-induced paw edema; assay: Carrageenan-induced paw edema; type: in vivo, rat
Excerpt: Carrageenan-induced paw edema. The effects of peroxynitrite catalysts in vivo were initially tested on the carrageenan-induced paw edema. The choice of using this in vivo model of inflammation was based on the knowledge that 1) the inflammatory response is blocked by NOS inhibitors and 2) by superoxide dismutase (SOD). This indicates the participation of both NO and of O2-. Male Sprague Dawley rats were purchased from Harlan Sprague-Dawley (Indianapolis, Ind.). Male Sprague Dawley rats (175-200 g) received a subplantar injection in the right hind paw of carrageenan (0.1 ml of a 1% suspension in 0.85% saline). Paw volume was measured by a plethysmometer immediately before the injection of carrageenan and then at hourly intervals from 1 to 6 h. Edema was expressed as the increase in paw volume (in ml) measured after carrageenan injection compared to the pre-injection value for individual animals.

[2] = Stopped-flow kinetic analysis of catalytic decomposition of peroxynitrite by metal complexes; details: pH = 7.4, 22° C.
Method: To screen metal complexes for peroxynitrite decomposition catalytic activity of the present invention, peroxynitrite is prepared and isolated as its sodium salt by the reaction of acidic hydrogen peroxide with sodium nitrite followed by rapid quenching with NaOH as set out by Halfpenny and Robinson, in J. Chem. So., 1952, 928-938. Peroxynitrite has an absorbance maximum at 302 nm with an extinction coefficient of 1670 M^-1 cm^-1. Therefore, it is possible to directly observe the decomposition of peroxynitrite by stop-flow spectrophotometric analysis by monitoring the decomposition of the absorbance at 302 nm. That is, such observation of the decomposition of peroxynitrite at a rate accelerated over the natural decomposition rate with the addition of the metal complex identifies a compound of the present invention.
Kinetic measurements were made on an OLIS Rapid Scanning Stopped-Flow Spectrometer (On-Line Instrument Systems Inc., Bogart, Ga.)) using the OLISRSM-1000 Operating system for data acquisition and manipulation.
Thus, in a typical experiment the natural background decomposition rate of sodium peroxynitrite was determined as follows. A 24 mM stock solution of sodium peroxynitrite in 50 mM NaOH is load into the small volume syringe and 100 mM potassium phosphate pH=7.4 is charged into the large volume syringe of the stopped-flow spectrophotometer. All stopped -flow measurements were made at 22 ° C. Injection of the solutions into the sample compartment results in ~25 fold dilution of the stock sodium peroxynitrite. […] To test for catalytic peroxynitrite decomposition activity, the metal complex was dissolved in 100 mM potassium phosphate buffer pH=7.4 and loaded into the large syringe and the decomposition of peroxynitrite was monitored as described above. The catalytic rate constant (kcat M-1 sec^-1) for the complexes tested was determined by varying the complex concentration and plotting kobs vs [complex] Table 1. The kobs were obtained from averages of three stopped flow analysis at each catalyst concentration.

[3] = system: RAW 264.7 cells; assay: Cell protection assay, Alamar Blue viability after peroxynitrite challenge; type: cell-based, murine; details: PN 500 micromolar; RAW cells, FIG. 9 (H2 TMPyP and ZnTMPyP: data not shown)
Method: FIG. 8: Comparison of Ni and Fe Catalyst Protection of RAW Cells from PN(peroxynitrite)-mediated Injury. RAW 264.7 cells were plated at approximately 2×10^5 per well of a 96-well plate. […] Each condition represents the mean of 4 wells ±sem.
FIG. 9: Protection from PN-mediated RAW Cell Injury by Fe Catalysts. Cells were treated with 500 micromolar PN in the presence or the absence of the following catalysts: FeTMPyP, FeTMPS, FeTPPS. Cell viability was monitored as described in the text and figure legends 1, 2 and 3. Values represent the mean of 4 determinations ±sem.
Protocol for Cell Protection Assays using Peroxynitrite Decomposition Catalysts: A cell viability assay was established to rapidly assess the efficacy of peroxynitrite(PN) catalysts in protecting cells from PN25 mediated injury and death. The peroxynitrite challenge consisted of a pulse of synthetic PN added exogenously to cells. In order to better assess the efficacy of PN catalysts in protecting cells from PN-mediated damage, a quantity of peroxynitrite(in 50 mM NaOH) determined to cause maximal injury(100%) was added as an exogenous pulse to each well of cells in the presence or absence of catalyst. The NaOH vehicle was not toxic by itself.
Cells(RAW 264.7 cells or P815 mastocytoma cells; American Type Culture Collection, Rockville, Md.) were plated to confluence on 96-well tissue culture plates. Each well is washed twice with Dulbecco's phosphate buffered saline(DPBS; GIBCO BRL, Grand Island, N.Y.) to remove protein and other serum components which might react with the exogenous peroxynitrite. To each well is then added 200 μl of DPBS. PN is next placed into separate wells at increasing concentrations and cell viability monitored. The dose at which maximal cell death is attained is then utilized for the catalyst protection assessment.
Phosphate-buffered saline (200 uL) containing increasing concentrations of catalyst is next placed into individual wells of cells. The maximal dose of PN is subsequently administered to all wells of cells. After 15 minutes, the medium is removed from each well and the cells are either allowed to recover overnight in Earles minimum essential medium without phenol red and supplemented with 10% fetal bovine serum or alternatively the plate of cells is assayed that day for mitochondrial integrity using the Alamar Blue viability assay(Alamar Biosciences, Inc.; Sacramento, Calif.). In either case, cells are incubated at 37° C. in 5% CO2.
Cell injury is measured as follows. Briefly, 10% Alamar Blue(v/v) in Earles MEM with 10% FBS is added to each well of cells for 1-2h. Cell metabolism of the dye generates a fluorescent product which is directly related to the number of viable cells. Moreover, the production of the fluorescent metabolite is linear for over 2 h. The amount of fluorescent product in 100 μl of conditioned medium from each well of cells is then measured with an IDEXX fluorescent plate reader (gain setting of 1%) at an emission wavelength of 575 nm after exciting at 545 nm. Viability is either given as absolute fluorescent units or as a percent of the value obtained for untreated cells(100%).

[4] = 30 mg/kg i.v., 1 h post carrageenan
[5] = 30 mg/kg i.v., 2 h post carrageenan
[6] = 30 mg/kg i.v., 3 h post carrageenan
[7] = 30 mg/kg i.v., 4 h post carrageenan
[8] = 30 mg/kg i.v., 5 h post carrageenan
[9] = 30 mg/kg i.v., 6 h post carrageenan

| Compound | % Inhibition of Paw Edema [1, 4] | % Inhibition of Paw Edema [1, 5] | % Inhibition of Paw Edema [1, 6] | % Inhibition of Paw Edema [1, 7] | % Inhibition of Paw Edema [1, 8] | % Inhibition of Paw Edema [1, 9] | kcat, catalytic rate constant for the decomposition of sodium peroxynitrite [2] | also measured |
| --- | --- | --- | --- | --- | --- | --- | --- | --- |
| Cc1c(-c2c3nc(c(-c4c(C)c(S(=O)(=O)O)c(C)c(S(=O)(=O)O)c4C)c4ccc([nH]4)c(-c4c(C)c(S(=O)(=O)O)c(C)c(S(=O)(=O)O)c4C)c4nc(c(-c5c(C)c(S(=O)(=O)O)c(C)c(S(=O)(=O)O)c5C)c5ccc2[nH]5)C=C4)C=C3)c(C)c(S(=O)(=O)O)c(C)c1S(=O)(=O)O [Example H2TMPS, 5,10,15,20-tetrakis(3,5-disulfonatedmesityl)porphyrin octasodium salt] | 0% | 0% | 0% | 0% | 0% | 0% | Inactive | inhibition of edema formation ([1]; 30 mg/kg i.v.): failed to inhibit edema formation |
| COc1cccc(C=NCCN=Cc2cccc(OC)c2[O-])c1[O-].[Cl-].[Fe+3] [Fe(III)(3,3'MeO2 Salen)] | – | – | – | – | – | – | 50000 M⁻¹ s⁻¹ | – |
| O=C([O-])CC(O)(CC(=O)[O-])C(=O)[O-].[Fe+3] [Fe(III)Citrate, Iron(III)citrate, reference compound] | – | – | – | – | – | – | 15000 M⁻¹ s⁻¹ | – |
| O=C([O-])CN(CCN(CC(=O)[O-])CC(=O)[O-])CC(=O)[O-].[Fe+3] [Fe(III)EDTA, iron(III)EDTA, reference compound] | – | – | – | – | – | – | 20000 M⁻¹ s⁻¹ | – |
| CC(=O)[O-].O=S(=O)(O)c1ccc(-c2c3nc(c(-c4ccc(S(=O)(=O)O)cc4)c4ccc([n-]4)c(-c4ccc(S(=O)(=O)O)cc4)c4nc(c(-c5ccc(S(=O)(=O)O)cc5)c5ccc2[n-]5)C=C4)C=C3)cc1.[Fe+3] [Fe(III)TPPS, Acetato-5,10,15,20-tetrakis(4-sulfonatophenyl)porphyrin iron(III)] | 0% | 27% | 25% | 30% | 34% | 33% | 2.06e+06 M⁻¹ s⁻¹ | protection of cells from PN-mediated injury [3]: significant protection of cells; % Inhibition of Paw Edema ([1]; 3 mg/kg i.v., 1 h post carrageenan): 0%; % Inhibition of Paw Edema ([1]; 3 mg/kg i.v., 2 h post carrageenan): 29%; % Inhibition of Paw Edema ([1]; 3 mg/kg i.v., 3 h post carrageenan): 20%; % Inhibition of Paw Edema ([1]; 3 mg/kg i.v., 4 h post carrageenan): 20%; % Inhibition of Paw Edema ([1]; 3 mg/kg i.v., 5 h post carrageenan): 19%; % Inhibition of Paw Edema ([1]; 3 mg/kg i.v., 6 h post carrageenan): 5%; % Inhibition of Paw Edema ([1]; 10 mg/kg i.v., 1 h post carrageenan): 0%; % Inhibition of Paw Edema ([1]; 10 mg/kg i.v., 2 h post carrageenan): 17%; % Inhibition of Paw Edema ([1]; 10 mg/kg i.v., 3 h post carrageenan): 20%; % Inhibition of Paw Edema ([1]; 10 mg/kg i.v., 4 h post carrageenan): 23%; % Inhibition of Paw Edema ([1]; 10 mg/kg i.v., 5 h post carrageenan): 19%; % Inhibition of Paw Edema ([1]; 10 mg/kg i.v., 6 h post carrageenan): 20% |
| [Cl][Fe]([Cl])[Cl] [FeCl3, reference compound] | – | – | – | – | – | – | – | inhibition of edema formation ([1]; 5 mg/kg, n=6): failed to inhibit edema formation |
| CC(=O)[O-].Cc1c(-c2c3nc(c(-c4c(C)c(S(=O)(=O)[O-])c(C)c(S(=O)(=O)[O-])c4C)c4ccc([n-]4)c(-c4c(C)c(S(=O)(=O)[O-])c(C)c(S(=O)(=O)[O-])c4C)c4nc(c(-c5c(C)c(S(=O)(=O)[O-])c(C)c(S(=O)(=O)[O-])c5C)c5ccc2[n-]5)C=C4)C=C3)c(C)c(S(=O)(=O)[O-])c(C)c1S(=O)(=O)[O-].[Mn+3].[Na+].[Na+].[Na+].[Na+].[Na+].[Na+].[Na+].[Na+] [Mn(III)TMPS, Acetato 5,10,15,20tetrakis(3,5,disulfonatomesityl)porphyrin Manganese(III) octasodium salt] | 0% | 0% | 0% | 0% | 0% | 0% | 29000 M⁻¹ s⁻¹ | – |
| CC1=NCCCNCCCN=C(C)c2cccc1n2.[Cl-].[Cl-].[Ni+2] [Ni(CR)Cl2, reference compound] | – | – | – | – | – | – | Inactive | – |
| Cc1c(-c2c3nc(c(-c4c(C)c(S(=O)(=O)[O-])c(C)c(S(=O)(=O)[O-])c4C)c4ccc([n-]4)c(-c4c(C)c(S(=O)(=O)[O-])c(C)c(S(=O)(=O)[O-])c4C)c4nc(c(-c5c(C)c(S(=O)(=O)[O-])c(C)c(S(=O)(=O)[O-])c5C)c5ccc2[n-]5)C=C4)C=C3)c(C)c(S(=O)(=O)[O-])c(C)c1S(=O)(=O)[O-].[Na+].[Na+].[Na+].[Na+].[Na+].[Na+].[Na+].[Na+].[Ni+2] [Ni(II)TMPS, Acetato-5,10,15,20-tetrakis(3,5-disulfonatomesityl)porphyrin Nickel (II) octasodium salt] | – | – | – | – | – | – | 87200 M⁻¹ s⁻¹ | – |
| CC1=CC(C)=Nc2ccccc2[N-]C(C)=CC(C)=Nc2ccccc2[N-]1.[Ni+2] [Ni(II)[14]12eneN4] | – | – | – | – | – | – | 17000 M⁻¹ s⁻¹ | – |
| Cc1c(-c2c3nc(c(-c4c(C)c(S(=O)(=O)[O-])c(C)c(S(=O)(=O)[O-])c4C)c4ccc([n-]4)c(-c4c(C)c(S(=O)(=O)[O-])c(C)c(S(=O)(=O)[O-])c4C)c4nc(c(-c5c(C)c(S(=O)(=O)[O-])c(C)c(S(=O)(=O)[O-])c5C)c5ccc2[n-]5)C=C4)C=C3)c(C)c(S(=O)(=O)[O-])c(C)c1S(=O)(=O)[O-].[Na+].[Na+].[Na+].[Na+].[Na+].[Na+].[Na+].[Na+].[Zn+2] [ZnTMPS, reference compound] | 0% | 0% | 0% | 0% | 0% | 0% | – | – |
| MnTPPS [reference compound] | – | – | – | – | – | – | – | inhibition of edema formation ([1]; 30 mg/kg i.v.): failed to inhibit edema formation |
